Results as given in patent US20180186815A1, “PHARMACEUTICAL COMPOSITIONS, METHODS FOR THEIR PREPARATION AND THEIR USE IN THE TREATMENT OF CANCER” (Urifer Ltd., priority 2016, published 2018).
Like-named read-outs stand apart in the source and are kept apart here.

Key:
Assay type in all cases: cell-based
[1] = system: colon cancer cell line RKO; experiment: Growth profile / viability of RKO colon cancer cells, XTT test; conditions: 96 h, Control DMSO = 100%, read-out: percentage of viable cells, RKO
Summary of the method: (§1)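 Cells were seeded and grown untreated overnight, then exposed to compounds at a final 5 μM (0.4% v/v DMSO). Untreated and 0.4% DMSO-only cells were the controls. Percent viable cells was measured by XTT 96 h after compound addition.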

[2] = system: colon cancer cell line HCT 116; experiment: Growth profile / viability of HCT116 colon cancer cells, XTT test; conditions: Homo sapiens, HCT-116, 96 h, Control DMSO = 100%, read-out: percentage of viable cells, HCT116
Summary of the method: as §1

[3] = Viability of FS non malignant fibroblastic cells, XTT test; conditions: FS cells (non-malignant fibroblastic cell line), Control DMSO = 100%, read-out: percentage of viable cells, FS
Summary of the method: as §1

[4] = system: colon cancer cell line HT29; experiment: Growth profile / viability of HT29 colon cancer cells, XTT test; conditions: Homo sapiens, HT-29, 96 h, Control DMSO = 100%, read-out: percentage of viable cells, HT29
Summary of the method: as §1

| SMILES | viability at 5 µM ([1]; first RKO column) [%] | viability at 5 µM ([1]; second RKO column) [%] | viability at 5 µM ([2]; first HCT116 column) [%] | viability at 5 µM ([2]; second HCT116 column) [%] | viability at 96 h, 5 µM ([3]; first FS column) [%] | viability at 96 h, 5 µM ([3]; second FS column) [%] | viability at 5 µM ([4]; first HT29 column) [%] | viability at 5 µM ([4]; second HT29 column) [%] |
| --- | --- | --- | --- | --- | --- | --- | --- | --- |
| CC(C)c1ccc(-c2cn3nc(N4CCC(C(=O)N5CCN(CC(=O)N6CCN(C)CC6)CC5)CC4)sc3n2)cc1 [Compound Z522-0238, 6-(4-isopropylphenyl)-2-[4-({4-[2-(4-methylpiperazin-1-yl)-2-oxoethyl]piperazin-1-yl}carbonyl)piperidin-1-yl]imidazo[2,1-b][1,3,4]thiadiazole] | 1 | 3 | 54 | 49 | 85 | 99 | 6 | 7 |
| Cc1c(-c2ccc(N3CCSCC3)cc2)nc2sc(N3CCC(C(=O)N4CCN(C)CC4)CC3)nn12 [Compound Z522-0184, 5-methyl-2-{4-[(4-methyl-piperazin-1-yl)carbonyl]piperidin-1-yl}-6-(4-thiomorpholin-4-ylphenyl)imidazo [2,1-b][1,3,4]-thiadiazole] | 41 | 53 | 77 | 87 | 71 | 86 | 50 | 44 |
| Cc1c(-c2ccc(N3CCC(C)CC3)cc2)nc2sc(N3CCC(C(=O)N4CCN(C)CC4)CC3)nn12 [Compound Z522-0190, 5-methyl-2-{4-[(4-methyl-piperazin-1-yl)-carbonyl]piperidin-1-yl}-6-[4-(4-methylpiperidin-1-yl)phenyl]-imidazo[2,1-b]-[1,3,4]thiadiazole] | 9 | 9 | 45 | 51 | 86 | 101 | 7 | 6 |
| O=C(C1CCN(c2nn3cc(-c4ccc(Cl)cc4)nc3s2)CC1)N1CCCCC1CN1CCOCC1 (stereo not drawn) [Compound Z522-0213, 6-(4-chlorophenyl)-2-(4-{[2-(morpholin-4-ylmethyl)piperidin-1-yl]carbonyl}piperidin-1-yl)imidazo[2,1-b][1,3,4] thiadiazole] | 18 | 13 | 84 | 88 | 87 | 98 | 87 | 99 |
| CC(C)c1ccc(-c2cn3nc(N4CCC(C(=O)N5CCN(CCN(C)C)CC5)CC4)sc3n2)cc1 [Compound Z522-0229, {2-[4-({1-[6-(4-isopropylphenyl)imidazo[2,1-b][1,3,4]thiadiazol-2-yl]piperidin-4-yl}carbonyl)piperazin-1-yl]ethyl} dimethylamine] | 45 | 47 | 87 | 99 | 79 | 101 | 74 | 77 |
| CC1CCN(c2ccc(-c3cn4nc(N5CCC(C(=O)N6CCN(C)CC6)CC5)sc4n3)cc2)CC1 [Compound Z522-0170, 2-{4-[(4-methyl-piperazin-1-yl)carbonyl]piperidin-1-yl}-6-[4-(4-methylpiperidin-1-yl)phenyl]-imidazo[2,1-b]-[1,3,4]thiadiazole] | 3 | 4 | 2 | 3 | 90 | 68 | 5 | 2 |
| CC(C)c1ccc(-c2cn3nc(N4CCC(C(=O)N5CCCCC5CCN5CCCCC5)CC4)sc3n2)cc1 (stereo not drawn) [Compound Z522-0233, 6-(4-isopropylphenyl)-2-(4-{[2-(2-piperidin-1-ylethyl)piperidin-1-yl]carbonyl}piperidin-1-yl)imidazo[2,1-b][1,3,4]thiadiazole] | – | 0 | 1 | – | – | 3 | 1 | 0 |
| CC(C)c1ccc(-c2cn3nc(N4CCC(C(=O)N5CCCC(CN6CCOCC6)C5)CC4)sc3n2)cc1 (stereo not drawn) [Compound Z522-0237, 6-(4-isopropyl-phenyl)-2-(4-{[3-(morpholin-4-yl-methyl)piperidin-1-yl]carbonyl}piperidin-1-yl)imidazo[2,1-b][1,3,4]thiadiazole] | 11 | 8 | 74 | 89 | 82 | 105 | 13 | 8 |
| CN(CCc1ccncc1)C(=O)C1CCN(c2nn3cc(-c4ccc(Cl)cc4)nc3s2)CC1 [Compound Z522-0205, 1-[6-(4-chlorophenyl)imidazo[2,1-b][1,3,4]thiadiazol-2-yl]-N-methyl-N-(2-pyridin-4-ylethyl) piperidine-4-carboxamide] | 52 | 62 | 78 | 71 | 88 | 111 | 88 | 85 |
| O=C(C1CCN(c2nn3cc(-c4ccc(Cl)cc4)nc3s2)CC1)N1CCN(c2ccccn2)CC1 [Compound Z522-0200, 6-(4-chlorophenyl)-2-{4-[(4-pyridin-2-ylpiperazin-1-yl)carbonyl]piperidin-1-yl}imidazo[2,1-b][1,3,4]thiadiazole] | 81 | 78 | 94 | 88 | 95 | 103 | 92 | 98 |
| CC(C)c1ccc(-c2cn3nc(N4CCC(C(=O)N5CCCN(c6ncccn6)CC5)CC4)sc3n2)cc1 [Compound Z522-0242, 6-(4-isopropylphenyl)-2-{4-[(4-pyrimidin-2-yl-1,4-diazepan-1-yl)carbonyl]piperidin-1-yl}imidazo[2,1-b][1,3,4]thiadiazole] | 55 | 50 | 88 | 86 | 89 | 123 | 72 | 66 |
| CC(C)c1ccc(-c2cn3nc(N4CCC(C(=O)N(C)CCc5ccccn5)CC4)sc3n2)cc1 [Compound Z522-0226, 1-[6-(4-isopropylphenyl)imidazo[2,1-b][1,3,4]thiadiazol-2-yl]-N-methyl-N-(2-pyridin-2-ylethyl)piperidine-4-carboxamide] | 72 | 64 | 80 | 80 | 91 | 99 | 101 | 92 |
